Test results published in the NIST ThermoML archive (doi:10.1016/j.tca.2012.07.004).

Experiment: xn = mol fraction of the nth substance listed
Conditions: 101 kPa, Liquid; for mass density: Vibrating tube method; for viscosity: Vibrating wire viscometry; for speed of sound: ultrasonic interferometer

C[NH+](C)C.O=S(=O)([O-])O [trimethylammonium hydrogen sulfate] + CN1CCCC1=O
Conditions | mass density [kg/m3] | speed of sound [m/s] | viscosity [mPa·s]
298.15 K, x1 = 0.0183 | 1041.67 | 1572 | 2.72
298.15 K, x1 = 0.0369 | 1053.11 | 1573 | 3.99
298.15 K, x1 = 0.0964 | 1086.47 | 1576 | 6.59
298.15 K, x1 = 0.138 | 1103.99 | 1578 | 8.37
298.15 K, x1 = 0.2014 | 1128.96 | 1580 | 10.5
298.15 K, x1 = 0.3115 | 1160.07 | 1584 | 12.1
298.15 K, x1 = 0.3587 | 1170.49 | 1586 | 12.2
298.15 K, x1 = 0.4311 | 1187.05 | 1588 | 11.9
298.15 K, x1 = 0.5579 | 1214.39 | 1590 | 10.3
298.15 K, x1 = 0.6955 | 1257.13 | 1591 | 8.34
298.15 K, x1 = 0.775 | 1295.34 | 1584 | 7.25
298.15 K, x1 = 0.843 | 1334.58 | 1581 | 6.05
298.15 K, x1 = 0.9375 | 1403.82 | 1573 | 5.39
298.15 K, x1 = 0.97 | 1439.41 | 1566 | 5.24
298.15 K, x1 = 1 | 1467.58 | 1564 | 5.1
303.15 K, x1 = 0.0183 | 1037.3 | 1552 | 2.02
303.15 K, x1 = 0.0369 | 1048.09 | 1553 | 2.9
303.15 K, x1 = 0.0964 | 1080.22 | 1556 | 5.22
303.15 K, x1 = 0.138 | 1098.35 | 1558 | 6.83
303.15 K, x1 = 0.2014 | 1122.72 | 1562 | 8.56
303.15 K, x1 = 0.3115 | 1154.59 | 1568 | 9.88
303.15 K, x1 = 0.3587 | 1161.24 | 1571 | 9.93
303.15 K, x1 = 0.4311 | 1177.45 | 1573 | 9.66
303.15 K, x1 = 0.5579 | 1204.95 | 1577 | 8.28
303.15 K, x1 = 0.6955 | 1247.15 | 1575 | 6.8
303.15 K, x1 = 0.775 | 1283.75 | 1572 | 6.01
303.15 K, x1 = 0.843 | 1321.99 | 1571 | 5.07
303.15 K, x1 = 0.9375 | 1389.78 | 1567 | 4.66
303.15 K, x1 = 0.97 | 1426.11 | 1563 | 4.59
303.15 K, x1 = 1 | 1463.56 | 1560 | 4.48
308.15 K, x1 = 0.0183 | 1029.88 | 1529 | 1.91
308.15 K, x1 = 0.0369 | 1041.19 | 1530 | 2.48
308.15 K, x1 = 0.0964 | 1073.31 | 1534 | 4.55
308.15 K, x1 = 0.138 | 1091.47 | 1536 | 5.68
308.15 K, x1 = 0.2014 | 1115.24 | 1539 | 7.18
308.15 K, x1 = 0.3115 | 1146.54 | 1545 | 8.38
308.15 K, x1 = 0.3587 | 1155.39 | 1549 | 8.48
308.15 K, x1 = 0.4311 | 1170.29 | 1553 | 8.26
308.15 K, x1 = 0.5579 | 1196.63 | 1560 | 7.19
308.15 K, x1 = 0.6955 | 1239.34 | 1561 | 5.89
308.15 K, x1 = 0.775 | 1273.99 | 1560 | 5.25
308.15 K, x1 = 0.843 | 1315.25 | 1559 | 4.4
308.15 K, x1 = 0.9375 | 1383.15 | 1558 | 4.28
308.15 K, x1 = 0.97 | 1417.02 | 1557 | 4.01
308.15 K, x1 = 1 | 1463.5 | 1556 | 3.94
313.15 K, x1 = 0.0183 | 1024.27 | 1521 | 1.45
313.15 K, x1 = 0.0369 | 1035.08 | 1523 | 1.76
313.15 K, x1 = 0.0964 | 1066.52 | 1526 | 3.52
313.15 K, x1 = 0.138 | 1083.97 | 1528 | 4.79
313.15 K, x1 = 0.2014 | 1107.81 | 1530 | 6.19
313.15 K, x1 = 0.3115 | 1135.87 | 1539 | 7.09
313.15 K, x1 = 0.3587 | 1145.43 | 1541 | 7.14
313.15 K, x1 = 0.4311 | 1157.43 | 1545 | 6.99
313.15 K, x1 = 0.5579 | 1185.37 | 1550 | 6.15
313.15 K, x1 = 0.6955 | 1225.55 | 1551 | 4.7
313.15 K, x1 = 0.775 | 1260.83 | 1550 | 3.99
313.15 K, x1 = 0.843 | 1295.67 | 1553 | 3.52
313.15 K, x1 = 0.9375 | 1369.46 | 1552 | 3.35
313.15 K, x1 = 0.97 | 1404.25 | 1552 | 3.23
313.15 K, x1 = 1 | 1455.63 | 1552 | 3.16

C[NH+](C)C.O=P([O-])(O)O [trimethylammonium dihydrogen phosphate] + CN1CCCC1=O
Conditions | mass density [kg/m3] | speed of sound [m/s] | viscosity [mPa·s]
298.15 K, x1 = 0.0201 | 1041.43 | 1573 | 2.89
298.15 K, x1 = 0.0391 | 1053.47 | 1586 | 6.08
298.15 K, x1 = 0.1028 | 1089.8 | 1610 | 13.47
298.15 K, x1 = 0.1462 | 1113.92 | 1626 | 18.44
298.15 K, x1 = 0.211 | 1148.18 | 1653 | 25.04
298.15 K, x1 = 0.3267 | 1196.88 | 1680 | 30.52
298.15 K, x1 = 0.3746 | 1213.72 | 1686 | 31.03
298.15 K, x1 = 0.4469 | 1236.58 | 1695 | 31.16
298.15 K, x1 = 0.5751 | 1270.11 | 1695 | 27.7
298.15 K, x1 = 0.7093 | 1297.11 | 1691 | 21.12
298.15 K, x1 = 0.852 | 1325.36 | 1673 | 12.99
298.15 K, x1 = 0.9413 | 1342.23 | 1665 | 8.68
298.15 K, x1 = 0.9719 | 1348.52 | 1665 | 7.48
298.15 K, x1 = 1 | 1353.61 | 1672 | 7.64
303.15 K, x1 = 0.0201 | 1034.74 | 1570 | 2.13
303.15 K, x1 = 0.0391 | 1045.35 | 1582 | 3.98
303.15 K, x1 = 0.1028 | 1081.42 | 1604 | 11.55
303.15 K, x1 = 0.1462 | 1104.62 | 1624 | 15.87
303.15 K, x1 = 0.211 | 1136.57 | 1644 | 21.79
303.15 K, x1 = 0.3267 | 1183.7 | 1671 | 26.64
303.15 K, x1 = 0.3746 | 1200.24 | 1679 | 27.3
303.15 K, x1 = 0.4469 | 1223.4 | 1692 | 26.98
303.15 K, x1 = 0.5751 | 1257.32 | 1692 | 24.1
303.15 K, x1 = 0.7093 | 1286.38 | 1690 | 18.07
303.15 K, x1 = 0.852 | 1317.91 | 1675 | 10.86
303.15 K, x1 = 0.9413 | 1337.6 | 1663 | 7.93
303.15 K, x1 = 0.9719 | 1344.48 | 1662 | 6.79
303.15 K, x1 = 1 | 1350.62 | 1660 | 6.46
308.15 K, x1 = 0.0201 | 1028.37 | 1550 | 1.54
308.15 K, x1 = 0.0391 | 1038.12 | 1564 | 2.3
308.15 K, x1 = 0.1028 | 1073.87 | 1587 | 8.69
308.15 K, x1 = 0.1462 | 1095.84 | 1606 | 11.98
308.15 K, x1 = 0.211 | 1126.55 | 1633 | 16.24
308.15 K, x1 = 0.3267 | 1173.1 | 1663 | 20.11
308.15 K, x1 = 0.3746 | 1189.72 | 1673 | 20.71
308.15 K, x1 = 0.4469 | 1213.08 | 1688 | 20.64
308.15 K, x1 = 0.5751 | 1248.1 | 1693 | 18.68
308.15 K, x1 = 0.7093 | 1279.47 | 1691 | 14.21
308.15 K, x1 = 0.852 | 1311.88 | 1685 | 8.83
308.15 K, x1 = 0.9413 | 1332.36 | 1675 | 7.25
308.15 K, x1 = 0.9719 | 1339.9 | 1673 | 6.6
308.15 K, x1 = 1 | 1347.59 | 1661 | 5.61
313.15 K, x1 = 0.0201 | 1023.28 | 1544 | 1.47
313.15 K, x1 = 0.0391 | 1031.97 | 1560 | 2.82
313.15 K, x1 = 0.1028 | 1065.17 | 1588 | 6.92
313.15 K, x1 = 0.1462 | 1086.37 | 1608 | 9.58
313.15 K, x1 = 0.211 | 1116.83 | 1637 | 12.74
313.15 K, x1 = 0.3267 | 1161.79 | 1672 | 16.43
313.15 K, x1 = 0.3746 | 1178.19 | 1684 | 16.55
313.15 K, x1 = 0.4469 | 1201.94 | 1702 | 16.53
313.15 K, x1 = 0.5751 | 1237.68 | 1708 | 15.2
313.15 K, x1 = 0.7093 | 1270.77 | 1704 | 11.9
313.15 K, x1 = 0.852 | 1305.61 | 1697 | 7.17
313.15 K, x1 = 0.9413 | 1327.25 | 1684 | 6.73
313.15 K, x1 = 0.9719 | 1335.1 | 1682 | 5.76
313.15 K, x1 = 1 | 1344.53 | 1664 | 5.07
